Laboratory results from ChEMBL document CHEMBL1145498, “A systematic interaction map of validated kinase inhibitors with Ser/Thr kinases” (Proc Natl Acad Sci U S A, 2007).

How the values were obtained:
[1] = biological target: T1, Serine/threonine-protein kinase 4 (Homo sapiens) (UniProt Q13043)
T1 sequence (whole entry): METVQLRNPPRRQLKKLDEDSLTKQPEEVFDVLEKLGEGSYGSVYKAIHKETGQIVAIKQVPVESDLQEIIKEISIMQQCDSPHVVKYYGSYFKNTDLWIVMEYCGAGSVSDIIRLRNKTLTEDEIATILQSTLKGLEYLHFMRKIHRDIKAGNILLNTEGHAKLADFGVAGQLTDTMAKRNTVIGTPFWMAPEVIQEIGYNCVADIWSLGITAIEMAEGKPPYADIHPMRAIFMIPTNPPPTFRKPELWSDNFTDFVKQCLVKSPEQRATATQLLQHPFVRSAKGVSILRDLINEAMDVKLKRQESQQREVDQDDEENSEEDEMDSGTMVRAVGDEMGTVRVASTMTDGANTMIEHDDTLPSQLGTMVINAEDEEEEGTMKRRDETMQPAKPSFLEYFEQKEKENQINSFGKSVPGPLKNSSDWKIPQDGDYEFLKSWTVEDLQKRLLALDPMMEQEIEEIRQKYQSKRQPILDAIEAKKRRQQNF

[2] = biological target: T2, Lymphokine-activated killer T-cell-originated protein kinase (Homo sapiens) (UniProt Q96KB5)
T2 sequence (whole entry): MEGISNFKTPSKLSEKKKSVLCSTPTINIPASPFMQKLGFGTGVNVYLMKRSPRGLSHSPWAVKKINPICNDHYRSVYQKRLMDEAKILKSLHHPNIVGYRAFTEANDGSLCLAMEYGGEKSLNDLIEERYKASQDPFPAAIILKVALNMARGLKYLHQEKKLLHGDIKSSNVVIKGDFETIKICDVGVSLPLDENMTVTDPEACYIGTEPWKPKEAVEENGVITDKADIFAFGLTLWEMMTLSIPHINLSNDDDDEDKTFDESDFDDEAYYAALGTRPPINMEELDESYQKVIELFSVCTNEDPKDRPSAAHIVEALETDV

[3] = biological target: Casein kinase I isoform gamma-3 (Homo sapiens) (UniProt Q9Y6M4)
Sequence of Casein kinase I isoform gamma-3 (Homo sapiens) (Q9Y6M4 whole entry, looked up, canonical isoform): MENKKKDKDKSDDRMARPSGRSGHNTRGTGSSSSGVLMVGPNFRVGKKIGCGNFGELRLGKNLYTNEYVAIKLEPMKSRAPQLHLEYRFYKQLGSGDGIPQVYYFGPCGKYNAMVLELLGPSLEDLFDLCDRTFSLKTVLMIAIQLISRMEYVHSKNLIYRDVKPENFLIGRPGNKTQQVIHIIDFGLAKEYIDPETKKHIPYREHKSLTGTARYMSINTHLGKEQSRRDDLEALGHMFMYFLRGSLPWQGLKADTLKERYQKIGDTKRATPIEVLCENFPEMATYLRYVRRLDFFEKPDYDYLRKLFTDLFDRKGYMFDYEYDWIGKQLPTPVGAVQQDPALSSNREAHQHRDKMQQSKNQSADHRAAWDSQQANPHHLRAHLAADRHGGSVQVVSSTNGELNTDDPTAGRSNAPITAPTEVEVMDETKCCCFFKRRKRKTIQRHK

[4] = biological target: Serine/threonine-protein kinase Nek6 (Homo sapiens) (UniProt Q9HC98)
Sequence of Serine/threonine-protein kinase Nek6 (Homo sapiens) (Q9HC98 whole entry): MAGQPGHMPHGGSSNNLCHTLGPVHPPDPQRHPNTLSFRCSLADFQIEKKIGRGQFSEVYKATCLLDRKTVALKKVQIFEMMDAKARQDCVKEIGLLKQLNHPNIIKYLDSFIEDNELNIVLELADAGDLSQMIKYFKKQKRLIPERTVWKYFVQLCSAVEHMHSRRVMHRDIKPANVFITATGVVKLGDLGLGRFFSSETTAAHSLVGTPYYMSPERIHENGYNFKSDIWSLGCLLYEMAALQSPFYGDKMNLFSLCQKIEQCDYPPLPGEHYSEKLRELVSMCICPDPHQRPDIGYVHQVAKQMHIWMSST

[5] = biological target: T3, Mitogen-activated protein kinase kinase kinase 5 (Homo sapiens) (UniProt Q99683)
T3 sequence (whole entry): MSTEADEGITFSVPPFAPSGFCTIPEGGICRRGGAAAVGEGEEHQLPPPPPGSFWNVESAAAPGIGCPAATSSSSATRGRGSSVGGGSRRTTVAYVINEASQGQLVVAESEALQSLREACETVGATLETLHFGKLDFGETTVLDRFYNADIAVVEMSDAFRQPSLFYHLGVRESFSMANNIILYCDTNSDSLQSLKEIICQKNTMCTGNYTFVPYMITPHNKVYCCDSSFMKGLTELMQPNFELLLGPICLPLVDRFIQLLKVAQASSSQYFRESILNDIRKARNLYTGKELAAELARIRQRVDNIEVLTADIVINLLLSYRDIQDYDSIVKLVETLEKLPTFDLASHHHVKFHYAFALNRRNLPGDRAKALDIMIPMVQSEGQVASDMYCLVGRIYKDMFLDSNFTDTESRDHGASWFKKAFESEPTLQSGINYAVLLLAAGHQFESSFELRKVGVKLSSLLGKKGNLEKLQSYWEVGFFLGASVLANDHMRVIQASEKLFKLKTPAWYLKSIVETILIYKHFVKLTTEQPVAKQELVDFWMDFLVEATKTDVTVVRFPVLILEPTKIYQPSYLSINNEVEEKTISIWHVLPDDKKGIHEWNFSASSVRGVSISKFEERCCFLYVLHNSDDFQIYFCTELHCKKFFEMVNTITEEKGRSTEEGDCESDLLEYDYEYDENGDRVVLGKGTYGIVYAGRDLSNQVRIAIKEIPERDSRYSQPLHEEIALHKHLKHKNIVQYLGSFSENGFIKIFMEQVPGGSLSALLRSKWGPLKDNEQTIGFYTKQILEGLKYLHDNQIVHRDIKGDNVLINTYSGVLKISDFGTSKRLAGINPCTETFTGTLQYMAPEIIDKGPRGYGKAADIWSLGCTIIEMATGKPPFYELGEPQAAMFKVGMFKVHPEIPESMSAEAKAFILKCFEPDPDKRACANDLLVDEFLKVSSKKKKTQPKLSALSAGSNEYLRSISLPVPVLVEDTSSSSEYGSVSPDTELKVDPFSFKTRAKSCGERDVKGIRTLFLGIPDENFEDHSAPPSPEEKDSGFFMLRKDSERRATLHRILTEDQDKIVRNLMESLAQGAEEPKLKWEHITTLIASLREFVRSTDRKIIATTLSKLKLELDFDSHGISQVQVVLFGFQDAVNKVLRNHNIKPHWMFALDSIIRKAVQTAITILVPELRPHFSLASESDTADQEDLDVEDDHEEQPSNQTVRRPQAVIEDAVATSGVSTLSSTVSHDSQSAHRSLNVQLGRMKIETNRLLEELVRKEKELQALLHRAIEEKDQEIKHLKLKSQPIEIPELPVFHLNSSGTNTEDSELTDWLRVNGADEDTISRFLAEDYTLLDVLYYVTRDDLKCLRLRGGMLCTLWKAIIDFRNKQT

[6] = biological target: Dual specificity protein kinase CLK3 (Homo sapiens) (UniProt P49761)
Sequence of Dual specificity protein kinase CLK3 (Homo sapiens) (P49761 whole entry, looked up): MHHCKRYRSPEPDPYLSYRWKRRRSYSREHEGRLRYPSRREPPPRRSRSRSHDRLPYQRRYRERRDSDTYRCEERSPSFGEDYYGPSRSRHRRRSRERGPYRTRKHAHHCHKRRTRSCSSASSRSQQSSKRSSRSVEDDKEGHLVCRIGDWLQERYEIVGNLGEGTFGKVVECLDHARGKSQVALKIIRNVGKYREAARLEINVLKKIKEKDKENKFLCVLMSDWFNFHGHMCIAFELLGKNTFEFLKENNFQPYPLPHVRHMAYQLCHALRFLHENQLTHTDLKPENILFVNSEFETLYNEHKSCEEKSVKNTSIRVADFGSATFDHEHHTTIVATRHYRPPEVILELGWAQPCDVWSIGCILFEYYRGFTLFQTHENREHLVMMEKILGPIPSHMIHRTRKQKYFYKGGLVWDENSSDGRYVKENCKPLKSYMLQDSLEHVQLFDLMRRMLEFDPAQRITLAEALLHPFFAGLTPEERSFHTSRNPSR

[7] = biological target: Calcium/calmodulin-dependent protein kinase type II subunit alpha (Homo sapiens) (UniProt Q9UQM7)
Sequence of Calcium/calmodulin-dependent protein kinase type II subunit alpha (Homo sapiens) (Q9UQM7 whole entry): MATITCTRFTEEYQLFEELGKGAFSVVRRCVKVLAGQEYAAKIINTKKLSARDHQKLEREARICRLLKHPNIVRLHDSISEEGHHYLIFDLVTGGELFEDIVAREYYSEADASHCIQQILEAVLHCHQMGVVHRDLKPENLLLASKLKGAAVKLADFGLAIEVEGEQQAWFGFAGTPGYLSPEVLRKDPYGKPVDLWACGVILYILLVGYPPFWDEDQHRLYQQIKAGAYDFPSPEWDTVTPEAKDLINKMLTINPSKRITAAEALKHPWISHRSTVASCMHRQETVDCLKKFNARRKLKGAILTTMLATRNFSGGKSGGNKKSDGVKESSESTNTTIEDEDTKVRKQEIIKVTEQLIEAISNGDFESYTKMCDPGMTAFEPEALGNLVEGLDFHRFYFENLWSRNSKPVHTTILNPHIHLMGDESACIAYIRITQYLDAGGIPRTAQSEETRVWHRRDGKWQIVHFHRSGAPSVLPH

[8] = biological target: Dual specificity mitogen-activated protein kinase kinase 2 (Homo sapiens, UniProt P36507)
Sequence of Dual specificity mitogen-activated protein kinase kinase 2 (P36507 whole entry): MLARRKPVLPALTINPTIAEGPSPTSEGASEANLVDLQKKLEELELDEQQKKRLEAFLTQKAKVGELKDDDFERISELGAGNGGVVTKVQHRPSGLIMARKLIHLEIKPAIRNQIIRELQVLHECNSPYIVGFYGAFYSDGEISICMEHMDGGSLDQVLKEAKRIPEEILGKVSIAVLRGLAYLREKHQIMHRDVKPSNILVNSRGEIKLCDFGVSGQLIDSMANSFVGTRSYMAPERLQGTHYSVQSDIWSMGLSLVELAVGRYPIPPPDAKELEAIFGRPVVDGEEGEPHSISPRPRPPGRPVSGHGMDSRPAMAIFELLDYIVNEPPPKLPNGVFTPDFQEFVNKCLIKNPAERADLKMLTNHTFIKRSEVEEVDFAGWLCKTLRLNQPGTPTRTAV

| SMILES | ΔTm [1] | ΔTm [2] | ΔTm [3] | ΔTm [4] | ΔTm [5] | ΔTm [6] | ΔTm [7] | ΔTm [8] |
| --- | --- | --- | --- | --- | --- | --- | --- | --- |
| COc1cc2ncnc(Nc3ccc(F)c(Cl)c3)c2cc1OCCCN1CCOCC1 | 1.6 °C | 0.6 °C | 0.3 °C | -0.4 °C | 0.1 °C | 0.8 °C | 0.3 °C | 0.2 °C |
| COC1=C2C[C@@H](C)C[C@H](OC)[C@H](O)[C@@H](C)/C=C(\C)[C@H](OC(N)=O)[C@@H](OC)/C=C\C=C(/C)C(=O)NC(=CC1=O)C2=O | 0.1 °C | 0.6 °C | 0.4 °C | -0.2 °C | -0.5 °C | -0.1 °C | -0.1 °C | -0.5 °C |
| N#C/C(=C\c1ccc(O)c(O)c1)C(=O)NCc1ccccc1 | 0.4 °C | 0.7 °C | 0.5 °C | 1 °C | -0.2 °C | 0.5 °C | 0.4 °C | 0.2 °C |
| Cn1cc(C2=C(c3cn(CCCSC(=N)N)c4ccccc34)C(=O)NC2=O)c2ccccc21 | 7.4 °C | -0.1 °C | 1 °C | -1 °C | 0.3 °C | 4.1 °C | 4.2 °C | 0.9 °C |
| O=C(O)Cc1ccc(O)c([N+](=O)[O-])c1 | 0.4 °C | 0.6 °C | 0.5 °C | 0.5 °C | -0.7 °C | -0.6 °C | 1.4 °C | 0.1 °C |
| O=c1sn(Cc2ccccc2)c(=S)n1Cc1ccccc1 | 0.9 °C | -0.4 °C | 0.4 °C | 0.1 °C | 0.2 °C | -0.3 °C | 0.3 °C | 0 °C |
| CC(C)(C)c1cc(C=C2C(=O)C=CC2=O)cc(C(C)(C)C)c1O | 1.2 °C | -0.1 °C | 0.2 °C | 0.2 °C | 0.1 °C | 0.1 °C | 0.3 °C | -1.2 °C |
| O=C1Nc2ccc(I)cc2/C1=C\c1cc(Br)c(O)c(Br)c1 | 4.1 °C | 0.9 °C | 0 °C | 0 °C | 1.7 °C | 0.5 °C | -0.8 °C | 0.2 °C |
| O=C1C=C2C(=Nc3c2c2c(c4c3=NC3=C4CCC=C3)C=NC=2)CC1 | 2.1 °C | 0.9 °C | 0.8 °C | 0.5 °C | 5.7 °C | 2.3 °C | 3.7 °C | 3.1 °C |
| O=c1cc(N2CCOCC2)oc2c(-c3ccccc3)cccc12 | 0.6 °C | -0.5 °C | 0.7 °C | -0.5 °C | 0.3 °C | 0.1 °C | 0.5 °C | -0.3 °C |
| C#Cc1cccc(Nc2ncnc3cc(OCCOC)c(OCCOC)cc23)c1 | 0.5 °C | 0.7 °C | 0.2 °C | -0.7 °C | 0.3 °C | 0.9 °C | 0 °C | 0.6 °C |
| O=C1Cc2c([nH]c3ccc([N+](=O)[O-])cc23)-c2ccccc2N1 | 5.1 °C | 0.1 °C | 0.9 °C | 0.8 °C | 0.9 °C | 1 °C | 0.6 °C | 0.3 °C |
| O=C1Nc2ccccc2/C1=C1/Nc2ccccc2/C1=N\O | 8.4 °C | 0 °C | 2.7 °C | 1.2 °C | 5.6 °C | 4 °C | 6.1 °C | 5.9 °C |
| CC(C)n1cnc2c(NCc3ccccc3)nc(NCCCO)nc21 | -0.3 °C | 0.2 °C | 1.1 °C | 0.4 °C | 0.2 °C | 1 °C | 1.8 °C | -0.3 °C |
| COc1cc2ncnc(Nc3cccc(Br)c3)c2cc1OC | 1.5 °C | 0.3 °C | -0.1 °C | 0.5 °C | 1.4 °C | 0.2 °C | 0.5 °C | 0.3 °C |
| COc1cc2ncnc(Nc3cccc(O)c3)c2cc1OC | 1.6 °C | -0.1 °C | 0.8 °C | -0.1 °C | 1 °C | 0.5 °C | 0 °C | 0.1 °C |
| Ic1cccc(CSc2nnc(-c3ccncc3)o2)c1 | -0.4 °C | 0.3 °C | 0.4 °C | -0.8 °C | 0.8 °C | 1.5 °C | -0.6 °C | -0.8 °C |
| CC(C)(C)c1nc2c3ccc(F)cc3c3c(=O)[nH]ccc3c2[nH]1 | 7.8 °C | -0.6 °C | 0.8 °C | 0.3 °C | 4.9 °C | 2.4 °C | 2.6 °C | 3.6 °C |
| CC(C)N(CCO)c1nc(Nc2cccc(Cl)c2)c2ncn(C(C)C)c2n1 | 4.2 °C | 0 °C | 6.7 °C | -0.2 °C | 0.4 °C | 4.2 °C | 0.5 °C | 0.6 °C |
| O=C1c2ccccc2-c2n[nH]c3cccc1c23 | 4.3 °C | 0.8 °C | 2 °C | 0.9 °C | 8.8 °C | 2 °C | 0.8 °C | 1.3 °C |
| O=C1NC(=O)C(c2c[nH]c3ccccc23)=C1c1c[nH]c2ccccc12 | 4.1 °C | -0.2 °C | 0.7 °C | -0.2 °C | 0.2 °C | 2.5 °C | 3.3 °C | 2.8 °C |
| NC(=O)c1ccc(-c2nc(-c3ccc4c(c3)OCCO4)c(-c3ccccn3)[nH]2)cc1 | 1.1 °C | -1.4 °C | 0.8 °C | -0.7 °C | 0.3 °C | 0.1 °C | 0.1 °C | -0.1 °C |
| CC(C)n1cnc2c(NCc3ccccc3O)nc(NCCCO)nc21 | 0.3 °C | 0.7 °C | 0.5 °C | 0 °C | 1 °C | 0.1 °C | 0 °C | -0.2 °C |
| O=c1c(-c2ccc(F)cc2)c(-c2ccncc2)[nH]n1-c1ccc(Cl)cc1 | 1.8 °C | 0.8 °C | 0.5 °C | 0.8 °C | 0.6 °C | 0.3 °C | 0.5 °C | 1.9 °C |
